Source: patent US20060100190A1, “Motexafin lutetium phototherapy with low fluences for treating vascular inflammation” (Pharmacyclics, Inc., priority 2004, published 2006)

Assays:
[1] = tested on: Watanabe Heritable Hyperlipidemic (WHHL) rabbits; assay: MLu phototherapy (732 nm, low fluences) of aortic atheroma in cholesterol-fed WHHL rabbits; type: in vivo, rabbit
Description: FIG. 1 depicts treated segments of the rabbit aortic tree. In each rabbit, both T1 and T2 segments were about 30 mm in length with another 30 mm of buffer in between. Both T1 and T2 received the same fluence (J/cmf) at different fluence rates (mW/cmf) because T1 illumination period was shorter at 400 seconds compared to 900 seconds for T2.
Thirty 8 months old male Watanabe Heritable Hyperlipidemic (WHHL) rabbits were randomized after 3 weeks of 1% cholesterol feeding to either control or MLu groups (10 mg/kg, iv via ear vein). Intravascular illumination was performed 24 hours post-MLu using a fiber with a 30 mm active diffuser tip to deliver escalating fluences (30-175 J/cmf, 732 nm) for 400 s (upper) and 900 s (lower thoracic/abdominal aorta); control received no light. Rabbits were then switched to a normal diet immediately after phototherapy and sacrificed 3 weeks later. Aortas were harvested and examined for plaque (I/M ratios), Mac (RAM11), smooth muscle cell (myosin) and collagen (Picrosirius Red) changes.

[2] = tested on: Fat-fed New Zealand rabbits; assay: MLu phototherapy at low light fluence in fat-fed New Zealand rabbits; type: in vivo, rabbit; details: PT at 732 nm, low light fluence 30-100 J/cmf
Description: The methods, compositions, strategies and techniques described herein include processes to treat diffuse inflammation in blood vessels by administering a photo-activatable compound and low light fluence in the range of in the range of about 10 to about 400 Joules/cm of illuminated length in the general vicinity of the inflammation.

atheroma = details: reported; cited from earlier work

CC(=O)[O-].CC(=O)[O-].CCc1c(CC)c2cc3nc(cnc4cc(OCCOCCOCCOC)c(OCCOCCOCCOC)cc4ncc4nc(cc1[n-]2)C(CCCO)=C4C)C(C)=C3CCCO.O.[Lu+3] [MLu, motexafin lutetium]
macrophages in plaques ([1]; 30-175 J/cmf delivered over 400 s and 900 s): macrophage depletion | macrophage burden ([1]; all tested fluence groups (30-175 J/cmf) vs. control, p<0.05, both T1 and T2 treated segments): statistical significant reduction in macrophage burden | collagen (picrosirius red, bright-field and polarization microscopy) ([1]; treated 30 J/cmf, 400 s vs. control): denser packing of matured collagen | smooth muscle cell (SMC) content, histology of myosin-stained areas ([1]; treated 30 J/cmf, 400 s vs. control (non-phototherapy)): did not appear to decrease | SMC content (myosin positive areas), planimetry, % of the intima ([1]; treated sections, 30 J/cmf, 400 s, control 43.1±3.8%): 50.9±9.7% | diffuse inflammation in blood vessels (based on decrease in macrophage burden) [2]: significant reduction in diffuse inflammation | effect on macrophages (Mac) following phototherapy (PT) (atheroma): destroys Mac by inducing apoptosis
